The results in this text go back to patent US5367077A (priority 1992, dated 1994).

In the assay the target is GABAa receptor. Put plainly: GABAa receptor binding assay: displacement of [3H]-Flumazenil (RO15-1788) from rat cortical tissue. The settings on record: rat cortical tissue homogenate, 0.5 nM 3H-RO15-1788, 30 min at 4° C., pH 7.4. The method, then: The pharmaceutical utility of compounds of this invention are indicated by the following assay for GABAa receptor activity.
Assays are carried out as described in Thomas and Tallman (J. Bio. Chem. 156: 9838-9842 , J. Neurosci. 3: 433-440, 1983). Rat cortical tissue is dissected and homogenized in 25 volumes (w/v) of 0.05M Tris HCl buffer (pH 7.4 at 4° C.). The tissue homogenate is centrifuged in the cold (4° ) at 20,000×g for 20'. The supernatant is decanted and the pellet is rehomogenized in the same volume of buffer and again centrifuged at 20,000×g. The supernatant is decanted and the pellet is frozen at -20° C. overnight. The pellet is then thawed and rehomogenized in 25 volume (original wt/vol) of buffer and the procedure is carried out twice. The pellet is finally resuspended in 50 volumes (w/vol of 0.05M Tris HCI buffer (pH 7.4 at […]).
Incubations contain 100 μl of tissue homogenate, 100 μl of radioligand 0.5nM (^3 H-RO15-1788 [^3 H-Flumazenil] specific activity 80 Ci/mmol), drug or blocker and buffer to a total volume of 500 μl. Incubations are carried for 30 min at 4° C. then are rapidly filtered through GFB filters to separate free and bound ligand. Filters are washed twice with fresh 0.05M Tris HCI buffer (pH 7.4 at 4° C.) and counted in a liquid scintillation counter. 1.0 μM diazepam is added to some tubes to determine nonspecific binding. Data are collected in triplicate determinations. averaged and % inhibition of total specific binding is calculated. Total Specific Binding=Total-Nonspecific. In some cases, the amounts of unlabeled drugs is varied and total displacement curves of binding are carried out. Data are converted to a form for the calculation of IC50 and Hill Coefficient (nH).

The IC50 is the midpoint of a concentration-inhibition curve. Low values mean inhibition by little substance, high ones a need for much substance. `Fc1ccccc1-c1cc2c3c([nH]c2cn1)CCCC3` [Compound 2] yielded an IC50 of 550 nM.
`COc1cccc(-c2cc3c4c([nH]c3cn2)CCC2(C4)OCCO2)c1` [Compound 18, 2'-(3-Methoxyphenyl)-5',6',7',9'-tetrahydro-spiro[(1,3)dioxolane-2,8'-5H-indolo[3,4-b]pyridine]] returned a half-inhibitory concentration (IC50) of 120 nM.
Take `Fc1ccccc1-c1cc2c3c([nH]c2cn1)CCN(Cc1ccccc1)C3` [Compound 20, 8-Benzyl-2-(2-fluorophenyl)-5,6,7,9-tetrahydro-5H-pyrido[4,3-b]pyrido[4,3-d]-pyrrole]: the concentration for half-maximal inhibition (IC50) is 130 nM.
Turning to `COc1cccc(-c2cc3c4c([nH]c3cn2)CCN(Cc2ccccc2)C4)c1` [Compound 24, 8-Benzyl-2-(3-methoxyphenyl)-5,6,7,9-tetrahydro-5H-pyrido[4,3-b]pyrido[4,3-d]-pyrrole], the IC50 was found to be 240 nM.
